Results as given in patent US20060166906A1, “6-O-substituted erythromycin derivatives having improved gastrointestinal tolerance” (priority 2001, published 2006).

Tested on: conscious ferrets
Test: Gastrointestinal tolerability study: nausea and emesis in conscious ferrets
Assay type: in vivo, ferret
Settings: observed 90 minutes; for % Emesis: oral gavage 30 mg/kg in 2 mL ethanol and 4 mL water, vomiting ferrets / animals dosed; for Nausea Score: oral gavage 30 mg/kg, mean number of nausea behaviors (up to five) per animal
Protocol: Example 3 and three reference compounds were investigated for their ability to produce nausea and emesis in conscious ferrets using the method as described in Drugs, 53(2), 206-234 (1997) and Cancer Treat. Rep., 66(1), 187-189 (1982). Each compound was administered to 6 ferrets by oral gavage at 30 mg/kg in 2 mL of ethanol and 4 mL of water. […] Nausea was preceded by up to five of the following behaviors in the ferret: licking, down, flop, backing, and gag. […] The mean nausea score for a compound is the total number of nausea behaviors divided by the number of animals given the compound. Percent emesis is the total number of vomiting ferrets divided by the number of animals administered the compound.

CC[C@H]1OC(=O)[C@H](C)[C@@H](O[C@H]2C[C@@](C)(OC)[C@@H](O)[C@H](C)O2)[C@H](C)[C@@H](O[C@@H]2O[C@H](C)C[C@H](N(C)C)[C@H]2O)[C@](C)(OC)C[C@@H](C)C(=O)[C@H](C)[C@@H](O)[C@]1(C)O [Clarithromycin]
% Emesis: 83% | Nausea Score: 1.4

CC[C@H]1OC(=O)[C@H](C)[C@@H](O[C@H]2C[C@@](C)(OC)[C@@H](O)[C@H](C)O2)[C@H](C)[C@@H](O[C@@H]2O[C@H](C)C[C@H](N(C)C)[C@H]2O)[C@](C)(O)C[C@@H](C)C(=O)[C@H](C)[C@@H](O)[C@]1(C)O [Erythromycin]
% Emesis: 67% | Nausea Score: 1.2

CC[C@H]1OC(=O)[C@H](C)C(=O)[C@H](C)[C@@H](O[C@@H]2O[C@H](C)C[C@H](N(C)C)[C@H]2O)[C@](C)(OC)C[C@@H](C)C(=O)[C@H](C)[C@H]2N(CCCCn3cnc(-c4cccnc4)c3)C(=O)O[C@]12C [Telithromycin]
% Emesis: 50% | Nausea Score: 1.8
